Measurements taken from patent US11414379B2, “SPAK kinase inhibitors as neuroprotective agents” (United States Government as represented by the Department …, priority 2018, dated 2022).

Legend:
KCC2 pThr1007 = test: Phosphorylation immunoblot in KCC2-transfected HEK293 cells; assay type: cell-based, human; details: concentration inhibiting phosphorylation
Description: (§1) HEK293 (human embryonic kidney 293) cells were cultured on 10-cm-diameter dishes in DMEM supplemented with 10% (v/v) foetal bovine serum, 2 mM L-glutamine, 100 U/ml penicillin and 0.1 mg/ml streptomycin. HEK293 cells were transfected with a mixture of 20 μl of 1 mg/ml polyethylenimine (Polysciences) and 5-10 μg of plasmid DNA as described previously (Durocher et al., 2002). 36 hours post-transfection cells were stimulated with either control isotonic or hypotonic medium for a period of 30 minutes. Cells were lysed in 0.3 mL of ice-cold lysis buffer/dish, lysates were clarified by centrifugation at 4° C. for 15 minutes at 26,000 g and the supernatant aliquots were frozen in liquid nitrogen and stored at −20° C. Protein concentrations were determined using the Bradford method. Cells were treated with the indicated concentrations of the SPAK/OSR1 inhibitors. […] Hypotonic low chloride buffer was 67.5 mM sodium-gluconate, 2.5 mM potassium-gluconate, 0.25 mM CaCl2), 0.25 mM MgCl2, 0.5 mM Na2HPO4, 0.5 mM Na2SO4 and 7.5 mM HEPES (pH 7.5).
(§2) The membranes were incubated for 30 min with TBST (Tris-buffered saline, 0.05% Tween-20) containing 5% (w/v) skim milk. The blots were then washed six times with TBST and incubated for 1 hour at room temperature with secondary HRP-conjugated antibodies diluted 5000-fold in 5% (w/v) skim milk in TBST. After repeating the washing steps, signals were detected with enhanced chemiluminescence reagent. Immunoblots were developed using a film automatic processor (SRX-101; Konica Minolta Medical) and films were scanned at 600 dpi (PowerLook 1000; UMAX). Figures were generated using Photoshop/Illustrator (Adobe). The densities of bands were measured with ImageJ. For phospho-antibody immunoprecipitation, KCC isoforms were immunoprecipitated from indicated cell extracts. 2 mg of the indicated clarified cell extract were mixed with 15 μg of the indicated phospho-specific KCC antibody conjugated to 15 μl of protein-G-Sepharose, in the added presence of […] of the dephosphorylated form of the phosphopeptide antigen, and incubated 2 hours at 4° C. with gentle shaking. Immunoprecipitates were washed three times with 1 mL of lysis buffer containing 0.15 M NaCl and twice with 1 ml of buffer A. Bound proteins were eluted with 1×LDS sample buffer.
(§3) HEK293 cells were transfected with a DNA construct encoding wild type N-terminally FLAG-tagged KCC2. 36 hrs post-transfection, cells were exposed 30 min to either control isotonic or hypotonic low [C1^−] conditions, then treated in the same conditions for an additional 30 min with the indicated inhibitors at the concentrations noted. Cell lysates were subjected to SDS-PAGE and Western blotting with the indicated antibodies. See FIG. 3 for Western blot quantitation.
(§4) Referring to FIG. 2, concentration-response experiments testing effects of Closantel analogs on phosphorylation of KCC2 Thr906/Thr1007 are shown. HEK293 cells were transfected with DNA construct encoding wild type N-terminally FLAG-tagged KCC2. 36 h post-transfection, cells were exposed 30 min to either control isotonic conditions or hypotonic low Cl^− conditions, then treated in the same conditions with the specified inhibitors (1b, 1c, 1f, 1d, 1h, and 1g, respectively) at the indicated concentrations for an additional 30 min. Lysates were subjected to SDS-PAGE and Western blotting with the indicated antibodies.
(§5) Referring to FIG. 3, HEK293 cells were transfected with the DNA construct encoding wild type N-terminally FLAG-tagged KCC2. 36 h post-transfection, cells were exposed 30 min to either control isotonic or hypotonic low Cl^− conditions, then treated in the same conditions with the specified inhibitors at the indicated concen-trations for an additional 30 min. Lysates were subjected to SDS-PAGE and Western blotting with the indicated antibodies. Closantel, STOCK1S-14279 and STOCK1S-50699 were used as reference compounds.

KCC2 pThr906 = test: as above; assay type: cell-based, human; details: concentration inhibiting phosphorylation
Description: as §1, §2, §3, §4, §5

SPAK pSer373 = test: as above; assay type: cell-based, human; details: concentration inhibiting phosphorylation
Description: as §1, §2, §3, §4, §5

SPAK-WNK1 interaction = target: T1, SPAK-WNK1 interaction (Homo sapiens, UniProt Q9UEW8); test: Co-immunoprecipitation of WNK1 with SPAK from HEK293 cell lysates; assay type: binding; details: 30 min on ice
T1 construct: Non-transfected HEK293 cell lysates; endogenous in cells; host or cells: HEK293 (non-transfected) lysate
Source text: Referring to FIG. 6, evidence that SPAK associates with WNK1, and interaction is disrupted by SPAK CCT mutation is shown. […] Immunoprecipitates were subjected to immunoblot probed with antibody to total WNK1 and antibody to total SPAK.

[1] = tested on: KCCs sites-1/2 (KCC2 Thr906/1007 or KCC3 Thr991/1048) phosphorylation; test: Phosphorylation immunoblot in HEK293 cells; assay type: cell-based, human; details: only at this concentration
Description: HEK293 (human embryonic kidney 293) cells were cultured on 10-cm-diameter dishes in DMEM supplemented with 10% (v/v) foetal bovine serum, 2 mM L-glutamine, 100 U/ml penicillin and 0.1 mg/ml streptomycin. HEK293 cells were transfected with a mixture of 20 μl of 1 mg/ml polyethylenimine (Polysciences) and 5-10 μg of plasmid DNA as described previously (Durocher et al., 2002). 36 hours post-transfection cells were stimulated with either control isotonic or hypotonic medium for a period of 30 minutes. Cells were lysed in 0.3 mL of ice-cold lysis buffer/dish, lysates were clarified by centrifugation at 4° C. for 15 minutes at 26,000 g and the supernatant aliquots were frozen in liquid nitrogen and stored at −20° C. Protein concentrations were determined using the Bradford method. Cells were treated with the indicated concentrations of the SPAK/OSR1 inhibitors. […]
The membranes were incubated for 30 min with TBST (Tris-buffered saline, 0.05% Tween-20) containing 5% (w/v) skim milk. […] After repeating the washing steps, signals were detected with enhanced chemiluminescence reagent. […] The densities of bands were measured with ImageJ. […]
HEK293 cells were transfected with a DNA construct encoding wild type N-terminally FLAG-tagged KCC2. […] See FIG. 3 for Western blot quantitation. […]

SMILES | KCC2 pThr1007 (μM) hypo (KCC2 pThr1007; hypotonic low Cl- conditions) [μM] | KCC2 pThr1007 (μM) Iso (KCC2 pThr1007; isotonic conditions) [μM] | KCC2 pThr906 (μM) hypo (KCC2 pThr906; hypotonic low Cl- conditions) | KCC2 pThr906 (μM) Iso (KCC2 pThr906; isotonic conditions) | SPAK pSer373 (μM) hypo (SPAK pSer373; hypotonic low Cl- conditions) [μM] | SPAK pSer373 (μM) Iso (SPAK pSer373; isotonic conditions) [μM] | co-immunoprecipitation of WNK1 with SPAK (SPAK-WNK1 interaction) | concentration at which phosphorylation of KCCs site-1 was significantly inhibited [1] [µM]
Cc1cc(C(C#N)c2ccc(Cl)cc2)c(Cl)cc1NC(=O)c1cc(Cl)ccc1O (centres unmarked) [ZT-1a, 5-chloro-N-(5-chloro-4-((4-chlorophenyl)(cyano)methyl)-2-methylphenyl)-2-hydroxy-benzamide] | 3 | 1 | 3, 3 μM | 3, 3 μM | 3 | 1 | potently abolished | –
Cc1cc(C(C#N)c2ccc(Cl)cc2)c(Cl)cc1NC(=O)c1cc(I)cc(I)c1O (centres unmarked) [Closantel] | – | – | – | – | – | – | – | 10
